Target: T1, BACE-1 (Homo sapiens, UniProt P56817)
T1 construct: endogenous in cells; host or cells: HEK-293 cells stably transfected with wild type APP695
Assay: Cellular BACE-1 inhibition assay (in vitro cellular Amyloidβ 1-40 production, HTRF immunoassay)
Type: cell-based
Settings: inhibition of Amyloidβ 1-40 production; HEK-293 cells stably transfected with wild type APP695; 48 hours incubation; average where tested more than once; read-out: IC50
Description: Materials and Methods: HEK-293 cells stably transfected with a DNA construct containing the coding sequence for the wild type APP695 sequence were grown in Dulbecco's Modified Eagle Medium (“DMEM”) supplemented with 10% fetal bovine serum, penicillin/streptomycin and 150 μg/mL G418. Cells were plated in 96-well plates at 35,000 cells/well and allowed to attach for 8-12 hours. Media was changed to DMEM supplemented with 10% fetal bovine serum, penicillin/streptomycin 15 minutes prior to compound addition. Diluted compounds were then added at a final concentration of 0.5% DMSO. After 48 hours, 4 μL of media from each well was added to a corresponding well of a 384 well plate (Perkin Elmer Cat#6008280) containing the HTRF reagents. HTRF reagents were obtained from the CisBio Amyloid β 1-40 peptide assay kit (Cat#62B40PEC) and were prepared as follows anti-peptide β (1-40)-Cryptate and anti-peptide […] were stored in 2 plate aliquots at −80° C. Diluent and Reconstitution buffer were stored at 4° C. Aliquots of the two antibodies were diluted 1:100 with Reconstitution buffer, and this mixture was diluted 1:2 with Diluent. 12 μL of the reagent mixture was added to the required wells of the 384 well assay plate. The assay plate was incubated at 4° C. for 17 hours and then analyzed for fluorescence at 665 and 620 nm. The following compounds were tested in the above assay. Some compounds were tested more than once, and the average is reported below.

T1 sequence (P56817 46-501): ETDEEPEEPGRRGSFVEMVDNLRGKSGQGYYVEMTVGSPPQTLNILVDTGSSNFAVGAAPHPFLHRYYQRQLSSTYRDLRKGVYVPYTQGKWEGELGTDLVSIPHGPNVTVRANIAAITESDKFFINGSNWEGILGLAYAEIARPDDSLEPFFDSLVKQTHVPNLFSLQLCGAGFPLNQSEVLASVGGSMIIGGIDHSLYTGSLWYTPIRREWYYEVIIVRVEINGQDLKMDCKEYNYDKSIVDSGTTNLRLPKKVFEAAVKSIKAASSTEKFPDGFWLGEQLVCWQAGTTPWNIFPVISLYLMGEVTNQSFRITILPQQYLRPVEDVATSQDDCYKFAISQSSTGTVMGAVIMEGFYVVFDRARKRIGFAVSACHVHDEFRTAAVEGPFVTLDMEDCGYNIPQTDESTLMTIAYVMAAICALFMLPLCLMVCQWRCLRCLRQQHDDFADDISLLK

Structure (SMILES) | IC50 [nM]
NC1=NC2(CO1)c1cc(-c3cncnc3)ccc1OC1CCCCC12 (single isomer, unassigned) [Example 11, 7′-(pyrimidin-5-yl)-1′,2′,3′,4′,4a′,9a′-hexahydro-5H-spiro[oxazole-4,9′-xanthen]-2-amine] | 69.5
NC1=NC2(CO1)c1cc(-c3cccnc3F)ccc1OC1CCC3(CCO3)C[C@@H]12 (stereo partly shown) [Example 199] | 630
CCO[C@H]1CC[C@@H]2Oc3ccc(-c4cc(F)cc(C#N)c4)cc3C3(COC(N)=N3)[C@H]2C1 (stereo partly drawn) [Example 159, 3-((2′S,4a′S,9a′R)-2-amino-2′-ethoxy-1′,2′,3′,4′,4a′,9a′-hexahydro-5H-spiro[oxazole-4,9′-xanthen]-7′-yl)-5-fluorobenzonitrile] | 76.1
C[C@]12CCCO[C@@H]1[C@]1(COC(N)=N1)c1cc(-c3cncc(F)c3)ccc1O2 (relative stereo) [Example 88, (4R*,4a′S*,10a′R*)-8′-(5-fluoropyridin-3-yl)-4a′-methyl-3′,4′,4a′,10a′-tetrahydro-2′H,5H-spiro[oxazole-4,10′-pyrano[3,2-b]chromen]-2-amine] | 154
COC1CCC2Oc3ccc(-c4cncc(Cl)c4)cc3C3(COC(N)=N3)C2C1 (stereo not shown) [Example 54, 7′-(5-chloropyridin-3-yl)-2′-methoxy-1′,2′,3′,4′,4a′,9a′-hexahydro-5H-spiro[oxazole-4,9′-xanthen]-2-amine] | 33.5
NC1=NC2(CS1)c1cc(-c3cncnc3)ccc1OC1CCC(O)C[C@@H]12 (stereo in doubt) [Example 34, (4a′S*,9aR*)-2-amino-7′-(pyrimidin-5-yl)-1′,2′,3′,4′,4a′,9a′-hexahydro-5,4-spiro[thiazole-4,9′-xanthen]-2′-ol] | 90.2
NC1=NC2(CO1)c1cc(-c3cncc(Cl)c3)ccc1O[C@@H]1CCCC[C@H]12 (single isomer, unassigned) [Example 10, 7′-(5-chloropyridin-3-yl)-1′,2′,3′,4′,4a′,9a′-hexahydro-5H-spiro[oxazole-4,9′-xanthen]-2-amine] | 58.5
NC1=NC2(CS1)c1cc(-c3cncc(Cl)c3)ccc1OC1CC(O)CC[C@@H]12 (single isomer, unassigned) [Example 25, (4a′S*,9aR*)-2-amino-7′-(5-chloropyridin-3-yl)-1′,2′,3′,4′,4a′,9a′-hexahydro-5H-spiro[thiazole-4,9′-xanthen]-3′-ol] | 24.1
CN1C(=O)CC2(N=C1N)c1cc(-c3cc(F)cc(Cl)c3)ccc1OC1CC(=O)CCC12 (stereo not shown) [Example 4, 2-amino-7′-(3-chloro-5-fluorophenyl)-1-methyl-1′,4′,4a′,9a′-tetrahydro-1H-spiro[pyrimidine-4,9′-xanthene]-3′,6(2′H,5H)-dione] | 1190
NC1=NC2(CS1)c1cc(-c3cncnc3)ccc1O[C@H]1CC(O)CC[C@@H]12 (relative stereo) [Example 26, (4a′S*,9a′R*)-2-amino-7′-(pyrimidin-5-yl)-1′,2′,3′,4′,4a′,9a′-hexahydro-5H-spiro[thiazole-4,9′-xanthen]-3′-ol] | 86.6

Source: patent US20120157448A1, “COMPOUNDS FOR TREATING NEURODEGENERATIVE DISEASES” (priority 2010, published 2012)
